# Tests used:
# [1] = target: T1, IKKε (Homo sapiens, UniProt Q14164); experiment: ADP-Glo Kinase Assay, inhibition activity on IKKε; assay type: biochemical
# T1 construct: purchased Promega and/or Invitrogen V4158; PR8031B; V3991 (not assigned to the two kinases)
# T1 sequence (Q14164 1-716): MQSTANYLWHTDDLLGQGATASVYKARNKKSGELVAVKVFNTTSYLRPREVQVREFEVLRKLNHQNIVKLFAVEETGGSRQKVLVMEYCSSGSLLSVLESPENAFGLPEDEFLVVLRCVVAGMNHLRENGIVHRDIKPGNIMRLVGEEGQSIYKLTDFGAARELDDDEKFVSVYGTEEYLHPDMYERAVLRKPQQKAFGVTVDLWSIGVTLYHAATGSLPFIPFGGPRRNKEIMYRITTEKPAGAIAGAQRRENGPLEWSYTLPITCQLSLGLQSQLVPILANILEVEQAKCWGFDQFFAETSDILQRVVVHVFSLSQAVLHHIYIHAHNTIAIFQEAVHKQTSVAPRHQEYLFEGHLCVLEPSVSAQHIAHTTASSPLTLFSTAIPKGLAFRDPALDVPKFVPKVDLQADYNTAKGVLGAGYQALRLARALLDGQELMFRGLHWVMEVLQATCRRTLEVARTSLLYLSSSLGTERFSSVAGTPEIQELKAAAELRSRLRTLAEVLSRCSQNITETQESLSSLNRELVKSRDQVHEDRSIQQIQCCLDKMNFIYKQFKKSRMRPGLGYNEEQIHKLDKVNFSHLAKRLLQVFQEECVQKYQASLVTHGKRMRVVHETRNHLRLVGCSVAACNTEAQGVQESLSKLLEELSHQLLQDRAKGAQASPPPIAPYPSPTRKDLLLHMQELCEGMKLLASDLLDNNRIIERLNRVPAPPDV
# In short: (§1)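 In 40 mM Tris pH 7.5 with 20 mM MgCl2 and 0.1 mg/mL BSA, each enzyme (IKKε or TBK1 kinase system) was run according to the manufacturer's protocol. ADP formed was detected by ADP-Glo luminescence.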
# [2] = target: T2, TBK1 (Homo sapiens, UniProt Q9UHD2); experiment: ADP-Glo Kinase Assay, inhibition activity on TBK1; assay type: biochemical
# T2 construct: purchased Promega (Invitrogen is also named in the same bracket) V4158; PR8031B; V3991 (not assigned to the two kinases)
# T2 sequence (Q9UHD2 1-729): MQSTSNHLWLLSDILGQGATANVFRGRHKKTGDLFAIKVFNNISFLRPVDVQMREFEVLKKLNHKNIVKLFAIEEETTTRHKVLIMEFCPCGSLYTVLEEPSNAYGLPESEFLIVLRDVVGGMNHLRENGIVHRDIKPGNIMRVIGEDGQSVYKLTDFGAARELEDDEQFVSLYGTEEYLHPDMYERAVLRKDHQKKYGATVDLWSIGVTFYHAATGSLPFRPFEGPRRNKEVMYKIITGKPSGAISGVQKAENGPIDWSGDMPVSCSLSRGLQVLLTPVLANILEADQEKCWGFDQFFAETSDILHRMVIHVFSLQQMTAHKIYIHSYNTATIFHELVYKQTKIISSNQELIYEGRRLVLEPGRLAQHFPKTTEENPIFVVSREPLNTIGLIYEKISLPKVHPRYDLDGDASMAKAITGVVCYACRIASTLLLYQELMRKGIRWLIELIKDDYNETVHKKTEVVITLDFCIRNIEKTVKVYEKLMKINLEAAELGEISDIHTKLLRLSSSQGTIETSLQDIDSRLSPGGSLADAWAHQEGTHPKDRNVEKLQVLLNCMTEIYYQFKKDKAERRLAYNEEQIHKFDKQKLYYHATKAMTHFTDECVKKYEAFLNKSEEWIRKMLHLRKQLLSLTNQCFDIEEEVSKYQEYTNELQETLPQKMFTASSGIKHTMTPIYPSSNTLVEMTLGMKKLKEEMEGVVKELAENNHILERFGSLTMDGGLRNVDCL
# In short: as §1
Compound,IC50 [1] [µM],IC50 [2] [µM]
"CC1C=C(c2c[nH]c3ncc(-c4ccc(CN5CCOCC5)s4)cc23)CC(C)N1C(=O)NC1CCCC1 (stereo not drawn) [Example 116, N-cyclopentyl-2,6-dimethyl-4-(5-(5-(morpholinomethyl)thiophen-2-yl)-1H-pyrrolo[2,3-b]pyridin-3-yl)-3,6-dihydropyridine-1(2H)-carboxamide]",1.52,1.28
"CC(C)NC(=O)N1C2C=C(c3c[nH]c4ncc(-c5ccc(CN6CCOCC6)s5)cc34)CC1CC2 (stereo not drawn) [Example 117, N-isopropyl-3-(5-(5-(morpholinomethyl)thiophen-2-yl)-1H-pyrrolo[2,3-b]pyridin-3-yl)-8-azabicyclo[3.2.1]oct-3-ene-8-carboxamide]",4.79,2.7
"CC(C)NC(=O)N1C2C=C(c3c[nH]c4ncc(-c5ccc(CN6CCOCC6)s5)cc34)CC1CCC2 (stereo not drawn) [Example 118, N-isopropyl-3-(5-(5-(morpholinomethyl)thiophen-2-yl)-1H-pyrrolo[2,3-b]pyridin-3-yl)-9-azabicyclo[3.3.1]non-3-ene-9-carboxamide]",0.61,0.34
"CC1CN(C(=O)NC2CCCC2)CC=C1c1c[nH]c2ncc(-c3cccc(S(C)(=O)=O)c3)cc12 (stereo not drawn) [Example 122, N-cyclopentyl-5-methyl-4-(5-(3-(methylsulfonyl)phenyl)-1H-pyrrolo[2,3-b]pyridin-3-yl)-5,6-dihydropyridine-1(2H)-carboxamide]",0.097,0.036
"CC1CN(C(=O)NC2CCCC2)CC=C1c1c[nH]c2ncc(-c3ccc(CN4CCN(C)CC4)s3)cc12 (stereo not drawn) [Example 126, N-cyclopentyl-5-methyl-4-(5-(5-((4-methylpiperazin-1-yl)methyl)thiophen-2-yl)-1H-pyrrolo[2,3-b]pyridin-3-yl)-5,6-dihydropyridine-1(2H)-carboxamide]",0.033,0.015
"CC1CN(C(=O)NC2CCCC2)CC=C1c1c[nH]c2ncc(-c3ccc(CN4CCOCC4)s3)cc12 (stereo not drawn) [Example 127, N-cyclopentyl-5-methyl-4-(5-(5-(morpholinomethyl)thiophen-2-yl)-1H-pyrrolo[2,3-b]pyridin-3-yl)-5,6-dihydropyridine-1(2H)-carboxamide]",0.1,0.004
"CC(C)OC(=O)N1CC=C(c2c[nH]c3ncc(-c4ccc(S(C)(=O)=O)cc4)cc23)CC1 [Example 148, Isopropyl 4-(5-(4-(methylsulfonyl)phenyl)-1H-pyrrolo[2,3-b]pyridin-3-yl)-5,6-dihydropyridine-1(2H)-carboxylate]",0.25,0.054
"Cc1nnc(-c2cnc3[nH]cc(C4=CCN(C(=O)OC(C)(C)C)CC4)c3c2)s1 [Example 170, tert-Butyl 4-(5-(5-methyl-1,3,4-thiadiazol-2-yl)-1H-pyrrolo[2,3-b]pyridin-3-yl)-5,6-dihydropyridine-1(2H)-carboxylate]",0.28,0.032
"O=C(c1cccs1)N1CC=C(c2c[nH]c3ncc(-c4ccc(S(=O)(=O)N5CCOCC5)cc4)cc23)CC1 [Example 190, (4-(5-(4-(Morpholinosulfonyl)phenyl)-1H-pyrrolo[2,3-b]pyridin-3-yl)-5,6-dihydropyridin-1(2H)-yl)(thiophen-2-yl)methanone]",0.39,0.14

# Continued by falling IC50 [1], values first:
IC50 [1] [µM],IC50 [2] [µM],Compound
3.47,5.41,"COc1ccc(-c2cnc3[nH]cc(C4=CC(c5ccccc5)N(C(=O)NC(C)C)CC4)c3c2)cc1OC (stereo not drawn) [Example 119, 4-(5-(3,4-Dimethoxyphenyl)-1H-pyrrolo[2,3-b]pyridin-3-yl)-N-isopropyl-2-phenyl-5,6-dihydropyridine-1(2H)-carboxamide]"
0.5,0.34,"CN(C)S(=O)(=O)c1ccc(-c2cnc3[nH]cc(C4=CCN(C(=O)OC5CCCC5)CC4)c3c2)cc1 [Example 179, Cyclopentyl 4-(5-(4-(N,N-dimethylsulfamoyl)phenyl)-1H-pyrrolo[2,3-b]pyridin-3-yl)-5,6-dihydropyridine-1(2H)-carboxylate]"
0.43,0.36,"CC(C)NC(=O)N1C(C)C=C(c2c[nH]c3ncc(-c4ccc(CN5CCOCC5)s4)cc23)CC1C (stereo not drawn) [Example 115, N-isopropyl-2,6-dimethyl-4-(5-(5-(morpholinomethyl)thiophen-2-yl)-1H-pyrrolo[2,3-b]pyridin-3-yl)-3,6-dihydropyridine-1(2H)-carboxamide]"
0.4,0.09,"CS(=O)(=O)c1cccc(-c2cnc3[nH]cc(C4=CCN(C(=O)NC5CCCC5)CC4)c3n2)c1 [Example 228, N-cyclopentyl-4-(2-(3-(methylsulfonyl)phenyl)-5H-pyrrolo[2,3-b]pyrazin-7-yl)-5,6-dihydropyridine-1(2H)-carboxamide]"
0.33,0.097,"CC1CN(C(=O)NC2CCCC2)CC=C1c1c[nH]c2ncc(-c3ccc(S(C)(=O)=O)cc3)cc12 (stereo not drawn) [Example 121, N-cyclopentyl-5-methyl-4-(5-(4-(methylsulfonyl)phenyl)-1H-pyrrolo[2,3-b]pyridin-3-yl)-5,6-dihydropyridine-1(2H)-carboxamide]"
0.28,0.057,"O=C(c1cccs1)N1CC=C(c2c[nH]c3ncc(-c4ccc5[nH]ncc5c4)cc23)CC1 [Example 204, (4-(5-(1H-indazol-5-yl)-1H-pyrrolo[2,3-b]pyridin-3-yl)-5,6-dihydropyridin-1(2H)-yl)(thiophen-2-yl)methanone]"
0.14,0.007,"O=C(c1ccc(-c2cnc3[nH]cc(C4=CCN(C(=O)c5cccs5)CC4)c3c2)cc1)N1CCOCC1 [Example 209, (4-(5-(4-(morpholine-4-carbonyl)phenyl)-1H-pyrrolo[2,3-b]pyridin-3-yl)-5,6-dihydropyridin-1(2H)-yl)(thiophen-2-yl)methanone]"
0.12,0.033,"NS(=O)(=O)c1cccc(-c2cnc3[nH]cc(C4=CCN(C(=O)OC5CCCC5)CC4)c3c2)c1 [Example 145, Cyclopentyl 4-(5-(3-sulfamoylphenyl)-1H-pyrrolo[2,3-b]pyridin-3-yl)-5,6-dihydropyridine-1(2H)-carboxylate]"
0.08,0.028,"CC1CN(C(=O)NC2CCCC2)CC=C1c1c[nH]c2ncc(-c3cccc(S(N)(=O)=O)c3)cc12 (stereo not drawn) [Example 123, N-cyclopentyl-5-methyl-4-(5-(3-sulfamoylphenyl)-1H-pyrrolo[2,3-b]pyridin-3-yl)-5,6-dihydropyridine-1(2H)-carboxamide]"
0.027,0.0036,"CC(C)NC(=O)N1CC=C(c2c[nH]c3ncc(-c4ccc(CN5CCN(C)CC5)s4)cc23)C(C)C1 (stereo not drawn) [Example 125, N-isopropyl-5-methyl-4-(5-(5-((4-methylpiperazin-1-yl)methyl)thiophen-2-yl)-1H-pyrrolo[2,3-b]pyridin-3-yl)-5,6-dihydropyridine-1(2H)-carboxamide]"
0.023,0.0033,"CN1CCN(Cc2ccc(-c3cnc4[nH]cc(C5=CCN(C(=O)c6cccs6)CC5)c4c3)s2)CC1 [Example 205, (4-(5-(5-((4-methylpiperazin-1-yl)methyl)thiophen-2-yl)-1H-pyrrolo[2,3-b]pyridin-3-yl)-5,6-dihydropyridin-1(2H)-yl)(thiophen-2-yl)methanone]"
0.008,0.0059,"CC(C)NC(=O)N1CCC(c2c[nH]c3ncc(-c4ccc(CN5CCOCC5)s4)cc23)=CC1(C)C [Example 114, N-isopropyl-2,2-dimethyl-4-(5-(5-(morpholinomethyl)thiophen-2-yl)-1H-pyrrolo[2,3-b]pyridin-3-yl)-5,6-dihydropyridine-1(2H)-carboxamide]"
